Test results reported in ChEMBL document CHEMBL1909046, “DrugMatrix in vitro pharmacology data”.

Columns and labels:
[1] = biological target: Prostaglandin G/H synthase 1 (Homo sapiens, UniProt P23219); test: biochemical; format: tissue-based, Platelet; settings: platelet;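 note: inhibition of COX-1 enzyme activity, with arachidonic acid supplied as substrate; in other assays of this panel Not Active means under 50% inhibition at 10 µM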
[2] = DRUGMATRIX: Glutamate, NMDA, Phencyclidine radioligand binding (ligand: [3H] TCP); format: cell membranes, Rattus norvegicus, Wistar, Cerebral cortex, Membrane; settings: Not Active = under 50% inhibition at 10 µM
Adenosine receptor A1 = biological target: T1, Adenosine receptor A1 (Homo sapiens, UniProt P30542); format: cell membranes, CHO, Membrane; settings: cho;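 note: radioligand binding assay at the adenosine A1 receptor, with DPCPX serving as the labelled ligand; in other assays of this panel Not Active means under 50% inhibition at 10 µM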
T1 sequence (P30542 whole entry): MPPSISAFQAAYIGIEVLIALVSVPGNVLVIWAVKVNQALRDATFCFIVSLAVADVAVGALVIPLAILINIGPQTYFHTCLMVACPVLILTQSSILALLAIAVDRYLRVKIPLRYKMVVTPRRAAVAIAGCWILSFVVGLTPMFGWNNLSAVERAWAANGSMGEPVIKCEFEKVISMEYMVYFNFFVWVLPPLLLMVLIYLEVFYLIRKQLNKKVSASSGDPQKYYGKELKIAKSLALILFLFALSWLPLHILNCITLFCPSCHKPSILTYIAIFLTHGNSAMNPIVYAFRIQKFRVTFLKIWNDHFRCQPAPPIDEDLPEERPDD

Calcitonin receptor = biological target: T2, Calcitonin receptor (Homo sapiens, UniProt P30988); format: cell membranes, Membrane; settings: t47d; note: in other assays of this panel Not Active means under 50% inhibition at 10 µM
T2 sequence (P30988 whole entry): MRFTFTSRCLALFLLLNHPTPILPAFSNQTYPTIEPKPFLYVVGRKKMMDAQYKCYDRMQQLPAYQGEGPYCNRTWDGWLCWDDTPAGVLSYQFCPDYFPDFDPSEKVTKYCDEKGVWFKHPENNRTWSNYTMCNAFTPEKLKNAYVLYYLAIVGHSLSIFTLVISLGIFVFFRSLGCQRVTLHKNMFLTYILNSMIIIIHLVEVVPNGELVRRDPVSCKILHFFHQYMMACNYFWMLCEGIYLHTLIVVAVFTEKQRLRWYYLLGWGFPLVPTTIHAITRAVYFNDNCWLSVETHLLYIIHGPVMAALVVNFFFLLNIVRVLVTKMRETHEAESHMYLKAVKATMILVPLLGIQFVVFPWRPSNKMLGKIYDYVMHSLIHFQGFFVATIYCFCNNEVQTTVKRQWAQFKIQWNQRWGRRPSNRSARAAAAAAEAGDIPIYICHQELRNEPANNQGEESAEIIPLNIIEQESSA

Endothelin-1 receptor = biological target: T3, Endothelin-1 receptor (Homo sapiens, UniProt P25101); format: cell membranes, Membrane; settings: cho-k1; note: in other assays of this panel Not Active means under 50% inhibition at 10 µM
T3 sequence (P25101 whole entry): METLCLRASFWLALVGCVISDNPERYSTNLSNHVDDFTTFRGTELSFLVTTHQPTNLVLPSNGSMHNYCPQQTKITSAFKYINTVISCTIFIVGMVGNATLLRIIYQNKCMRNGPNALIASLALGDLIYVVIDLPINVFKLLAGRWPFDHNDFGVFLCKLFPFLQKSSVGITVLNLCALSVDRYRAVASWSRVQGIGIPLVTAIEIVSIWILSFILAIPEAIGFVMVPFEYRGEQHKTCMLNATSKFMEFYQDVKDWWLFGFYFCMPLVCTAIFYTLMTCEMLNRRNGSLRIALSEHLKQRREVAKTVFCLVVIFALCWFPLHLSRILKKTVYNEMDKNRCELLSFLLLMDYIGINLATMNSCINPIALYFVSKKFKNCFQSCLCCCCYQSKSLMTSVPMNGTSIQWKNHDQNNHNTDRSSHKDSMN

[3] = DRUGMATRIX: GABAA, Flunitrazepam, Central radioligand binding (ligand: [3H] Flunitrazepam); format: cell membranes, Rattus norvegicus, Wistar, Brain, Membrane; settings: Not Active = under 50% inhibition at 10 µM

Chain of Prostaglandin G/H synthase 1 (P23219 whole entry): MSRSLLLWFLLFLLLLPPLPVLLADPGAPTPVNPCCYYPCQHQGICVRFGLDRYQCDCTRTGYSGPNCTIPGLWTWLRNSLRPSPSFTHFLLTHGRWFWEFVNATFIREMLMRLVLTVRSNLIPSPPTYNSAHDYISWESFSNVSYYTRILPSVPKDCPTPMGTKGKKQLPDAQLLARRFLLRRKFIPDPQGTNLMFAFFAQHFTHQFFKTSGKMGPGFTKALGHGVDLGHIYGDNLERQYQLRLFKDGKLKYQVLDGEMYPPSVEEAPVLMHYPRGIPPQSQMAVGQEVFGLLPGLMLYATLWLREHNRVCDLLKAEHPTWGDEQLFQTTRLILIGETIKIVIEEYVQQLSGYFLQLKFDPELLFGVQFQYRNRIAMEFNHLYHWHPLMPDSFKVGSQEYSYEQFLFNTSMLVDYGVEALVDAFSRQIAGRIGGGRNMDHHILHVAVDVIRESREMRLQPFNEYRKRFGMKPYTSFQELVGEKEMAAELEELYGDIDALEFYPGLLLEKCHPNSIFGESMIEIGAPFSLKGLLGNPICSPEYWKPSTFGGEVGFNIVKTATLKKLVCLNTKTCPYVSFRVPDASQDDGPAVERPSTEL

Row | SMILES | IC50 [1] | IC50 [2] | Ki [2] | IC50 (Adenosine receptor A1) | IC50 (Calcitonin receptor) | IC50 (Endothelin-1 receptor) | IC50 ([3]; read-out: IC50) [nM] | Ki ([3]; read-out: Ki) [nM] | IC50 [3] | Ki [3]
1 | CN1C(=O)CN=C(c2ccccc2)c2cc([N+](=O)[O-])ccc21 [NIMETAZEPAM] | Not Active | Not Active | Not Active | Not Active | Not Active | Not Active | 104 | 85 | – | –
2 | COc1ccc2c(c1OC)C(=O)O[C@@H]2[C@H]1c2c(cc3c(c2OC)OCO3)CCN1C [NOSCAPINE] | Not Active | Not Active | Not Active | Not Active | Not Active | Not Active | – | – | Not Active | Not Active
3 | C[C@@H]1O[C@@H](O[C@H]2C[C@@H](O)[C@]3(CO)[C@H]4[C@H](O)C[C@]5(C)[C@@H](C6=CC(=O)OC6)CC[C@]5(O)[C@@H]4CC[C@]3(O)C2)[C@H](O)[C@H](O)[C@H]1O [OUABAIN] | Not Active | Not Active | Not Active | Not Active | Not Active | Not Active | – | – | Not Active | Not Active
4 | NC(=O)N1c2ccccc2CC(=O)c2ccccc21 [OXCARBAZEPINE] | Not Active | Not Active | Not Active | Not Active | Not Active | Not Active | – | – | Not Active | Not Active
5 | COc1ccnc(C[S+]([O-])c2nc3ccc(OC(F)F)cc3[nH]2)c1OC (centres undefined) [PANTOPRAZOLE] | Not Active | Not Active | Not Active | Not Active | Not Active | Not Active | – | – | Not Active | Not Active
6 | N=C(N)c1ccc(OCCCCCOc2ccc(C(=N)N)cc2)cc1 [PENTAMIDINE] | Not Active | Not Active | Not Active | Not Active | Not Active | Not Active | – | – | Not Active | Not Active
7 | NNCCc1ccccc1 [PHENELZINE] | Not Active | Not Active | Not Active | Not Active | Not Active | Not Active | – | – | Not Active | Not Active
8 | CCc1ccc(CCOc2ccc(CC3SC(=O)NC3=O)cc2)nc1 (centres undefined) [PIOGLITAZONE] | Not Active | Not Active | Not Active | Not Active | Not Active | Not Active | – | – | Not Active | Not Active
9 | CCCNC(C)C(=O)Nc1ccccc1C (centres undefined) [PRILOCAINE] | Not Active | Not Active | Not Active | Not Active | Not Active | Not Active | – | – | Not Active | Not Active
10 | CCN(CC)CCNC(=O)c1ccc(N)cc1 [PROCAINAMIDE] | Not Active | Not Active | Not Active | Not Active | Not Active | Not Active | – | – | Not Active | Not Active
11 | CCN(CC)CCCC(C)Nc1c2ccc(Cl)cc2nc2ccc(OC)cc12 (centres undefined) [QUINACRINE] | Not Active | Not Active | Not Active | Not Active | Not Active | Not Active | – | – | Not Active | Not Active
12 | C[C@]12C=CC(=O)C=C1CC[C@H]1[C@@H]3C[C@@H](O)[C@](O)(C(=O)CO)[C@@]3(C)C[C@H](O)[C@@]12F [TRIAMCINOLONE] | Not Active | Not Active | Not Active | Not Active | Not Active | Not Active | – | – | Not Active | Not Active
13 | CC[C@]1(O)C[C@@H]2CN(CCc3c([nH]c4ccccc34)[C@@](C(=O)OC)(c3cc4c(cc3OC)N(C)[C@H]3[C@@](O)(C(N)=O)[C@H](O)[C@]5(CC)C=CCN6CC[C@]43[C@@H]65)C2)C1 [VINDESINE] | Not Active | Not Active | Not Active | Not Active | Not Active | Not Active | – | – | Not Active | Not Active
